Data from patent publication US11377679B2, “Multi-well-based cell culture test device for rapid antibiotic susceptibility testing” (priority 2016, dated 2022).
In brackets after ≈: the same amount, converted by molar mass.

Columns and labels:
Format in all cases: cell-based
P. aeruginosa [1] = assay: broth microdilution (BMD) susceptibility testing, strain from blood sample; settings: BMD testing method
Method: (§1) The tests were conducted on various antibiotics that are currently used in testing organizations. […] The concentrations shown in FIG. 12 are expressed in μg/mL.

P. aeruginosa [2] = assay: susceptibility testing using the cell culture test device (DRAST), strain from blood sample
Excerpt: (§2) Referring first to (a) of FIG. 4, a liquid medium containing a gelling agent is mixed with a biological agent to prepare a mixture solution as a first fluid. The liquid medium may include at least about 95% by weight of water and can be solidified due to the presence of the gelling agent. As the gelling agent, there may be exemplified agar, agarose, gelatin, alginate, collagen or fibrin. The use of agar or agarose is preferred. For example, agar may be used in an amount of 0.5 to 4% by weight in the liquid medium. The liquid medium usually requires no nutrients. In some examples, however, the liquid medium may include nutrients. The liquid medium may be a solution including a medium stimulating the division of particular cells.
(§3) Referring next to (b) of FIG. 4, the mixture solution is provided to a recess 421 formed at the bottom of a first sub-well. The mixture solution may be loaded in an amount corresponding to the volume of the recess of the first sub-well. The volume of the mixture solution loaded into the recess of the first sub-well is preferably from 10 μl to 200 μl, more preferably from 10 μl to 150 μl. If the volume of the mixture solution loaded into the first sub-well is less than the lower limit, the density of cells in the mixture solution is low, making it difficult to observe the cells. Meanwhile, if the volume of the mixture solution loaded into the first sub-well exceeds the upper limit, the mixture solution may overflow into a second sub-well beyond a barrier. […] The micropatterned groove also allows the mixture solution to be well fixed to the desired area. […] Referring to FIG. 5, a micropatterned groove 522 is formed in the well a sample to fix the sample to only the desired area.
(§4) A blood sample positive for bacterial infection is collected and diluted with a medium containing a gelling agent.
(§5) The mixture solution is solidified to form a solid thin film immobilized with the biological agent. When the temperature of the liquid medium drops, the medium is solidified, which restricts the mobility of the biological agent. This immobilization facilitates continuous observation of the motile biological agent.
(§6) As shown in (c) of FIG. 4, a second sub-well 430 including a bioactive agent in a solid form is provided with a solvent capable of dissolving the bioactive agent. When a bioactive agent is absent in the second sub-well 430, a solution containing a bioactive agent can be provided to the second sub-well 430. Herein, the bioactive agent may include a substance selected from antibiotics, anticancer agents, drugs such as immunosuppressants, nutrients, cellular secretions, signal transducers, viruses, cells, micro RNAs, proteins, antigens, antibodies, and DNA.

P. aeruginosa ATCC 27853 = assay: antibiotic susceptibility testing using the cell culture test device (DRAST), reference strain; settings: Pseudomonas aeruginosa, ATCC27853, observed until 6 h
Excerpt: as §2
(§7) Referring next to (b) of FIG. 4, the mixture solution is provided to a recess 421 formed at the bottom of a first sub-well. The mixture solution may be loaded in an amount corresponding to the volume of the recess of the first sub-well. The volume of the mixture solution loaded into the recess of the first sub-well is preferably from 10 μl to 200 μl, more preferably from 10 μl to 150 μl. If the volume of the mixture solution loaded into the first sub-well is less than the lower limit, the density of cells in the mixture solution is low, making it difficult to observe the cells. […]

E. faecalis ATCC 29212 = assay: as above; settings: Enterococcus faecalis, ATCC29212, observed until 6 h
Excerpt: as §2, §7

Enterobacter aerogenes [3] = assay: broth microdilution (BMD) susceptibility testing, strain from blood sample; settings: E. aerogenes from blood sample; BMD testing method
Method: as §1

Enterobacter aerogenes [4] = assay: susceptibility testing using the cell culture test device (DRAST), strain from blood sample; settings: E. aerogenes from blood sample
Excerpt: as §2, §3, §4, §5, §6

| Compound | susceptibility category (P. aeruginosa [1]) | susceptibility category (P. aeruginosa [2]) | MIC (P. aeruginosa ATCC 27853) [µg/mL] | MIC (E. faecalis ATCC 29212) [µg/mL] | susceptibility category (Enterobacter aerogenes [3]) | susceptibility category (Enterobacter aerogenes [4]) |
| --- | --- | --- | --- | --- | --- | --- |
| C[C@H]1[C@H](NC(=O)/C(=N\OC(C)(C)C(=O)O)c2csc(N)n2)C(=O)N1S(=O)(=O)O [aztreonam] | I | susceptible | 8 (≈ 18.4 µM) | – | – | – |
| CO/N=C(\C(=O)N[C@@H]1C(=O)N2C(C(=O)O)=C(COC(C)=O)CS[C@H]12)c1csc(N)n1 [cefotaxime] | I | susceptible | – | – | – | – |
| CN(C)[C@@H]1C(O)=C(C(N)=O)C(=O)[C@@]2(O)C(O)=C3C(=O)c4c(O)cccc4[C@@](C)(O)[C@H]3C[C@@H]12 [tetracycline] | – | – | – | 8 (≈ 18 µM) | – | – |
| CC1(C)S[C@@H]2[C@H](NC(=O)[C@H](C(=O)O)c3ccsc3)C(=O)N2[C@H]1C(=O)O [ticarcillin] | I | susceptible | – | – | – | – |
| colistin | susceptible | I | – | – | S | I |
